Tests used:
Settings in all cases: Compound concentration 1.0 uM
[1] = target: Casein kinase I isoform gamma-1 (Homo sapiens) (UniProt Q9HCP0); assay: CK1gamma1(h) Eurofins kinase panel
[2] = target: T1, Ephrin type-B receptor 4 (Homo sapiens) (UniProt P54760); assay: EphB4(h) Eurofins kinase panel
T1 sequence (whole entry): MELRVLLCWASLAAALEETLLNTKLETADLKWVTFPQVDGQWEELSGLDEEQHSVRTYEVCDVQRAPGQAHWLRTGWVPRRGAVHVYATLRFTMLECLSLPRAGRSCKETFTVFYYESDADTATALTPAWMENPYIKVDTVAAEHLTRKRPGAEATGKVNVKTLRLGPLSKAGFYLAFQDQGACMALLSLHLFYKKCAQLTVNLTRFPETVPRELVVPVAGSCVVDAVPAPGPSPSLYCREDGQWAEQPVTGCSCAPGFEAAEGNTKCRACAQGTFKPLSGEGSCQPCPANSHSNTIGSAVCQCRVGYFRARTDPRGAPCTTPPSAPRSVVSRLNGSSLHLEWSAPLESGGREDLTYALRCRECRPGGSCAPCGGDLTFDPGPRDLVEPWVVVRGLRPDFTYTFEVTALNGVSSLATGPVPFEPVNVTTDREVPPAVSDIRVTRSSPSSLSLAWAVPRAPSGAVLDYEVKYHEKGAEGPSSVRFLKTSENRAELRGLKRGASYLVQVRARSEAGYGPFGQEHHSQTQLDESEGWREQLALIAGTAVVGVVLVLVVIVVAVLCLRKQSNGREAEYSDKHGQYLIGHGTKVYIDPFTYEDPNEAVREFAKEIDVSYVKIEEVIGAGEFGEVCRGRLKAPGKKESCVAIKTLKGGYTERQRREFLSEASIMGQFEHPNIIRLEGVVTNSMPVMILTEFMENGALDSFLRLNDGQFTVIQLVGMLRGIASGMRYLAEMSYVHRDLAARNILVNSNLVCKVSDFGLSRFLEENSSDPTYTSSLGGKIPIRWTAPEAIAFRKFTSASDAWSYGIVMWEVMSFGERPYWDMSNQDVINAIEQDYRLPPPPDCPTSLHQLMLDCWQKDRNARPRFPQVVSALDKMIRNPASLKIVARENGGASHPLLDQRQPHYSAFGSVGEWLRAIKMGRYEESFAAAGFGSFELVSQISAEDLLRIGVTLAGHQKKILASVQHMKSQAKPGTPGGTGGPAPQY

[3] = target: Tyrosine-protein kinase Fes/Fps (Homo sapiens) (UniProt P07332); assay: Fes(h) Eurofins kinase panel
Chain of Tyrosine-protein kinase Fes/Fps (Homo sapiens) (P07332 whole entry): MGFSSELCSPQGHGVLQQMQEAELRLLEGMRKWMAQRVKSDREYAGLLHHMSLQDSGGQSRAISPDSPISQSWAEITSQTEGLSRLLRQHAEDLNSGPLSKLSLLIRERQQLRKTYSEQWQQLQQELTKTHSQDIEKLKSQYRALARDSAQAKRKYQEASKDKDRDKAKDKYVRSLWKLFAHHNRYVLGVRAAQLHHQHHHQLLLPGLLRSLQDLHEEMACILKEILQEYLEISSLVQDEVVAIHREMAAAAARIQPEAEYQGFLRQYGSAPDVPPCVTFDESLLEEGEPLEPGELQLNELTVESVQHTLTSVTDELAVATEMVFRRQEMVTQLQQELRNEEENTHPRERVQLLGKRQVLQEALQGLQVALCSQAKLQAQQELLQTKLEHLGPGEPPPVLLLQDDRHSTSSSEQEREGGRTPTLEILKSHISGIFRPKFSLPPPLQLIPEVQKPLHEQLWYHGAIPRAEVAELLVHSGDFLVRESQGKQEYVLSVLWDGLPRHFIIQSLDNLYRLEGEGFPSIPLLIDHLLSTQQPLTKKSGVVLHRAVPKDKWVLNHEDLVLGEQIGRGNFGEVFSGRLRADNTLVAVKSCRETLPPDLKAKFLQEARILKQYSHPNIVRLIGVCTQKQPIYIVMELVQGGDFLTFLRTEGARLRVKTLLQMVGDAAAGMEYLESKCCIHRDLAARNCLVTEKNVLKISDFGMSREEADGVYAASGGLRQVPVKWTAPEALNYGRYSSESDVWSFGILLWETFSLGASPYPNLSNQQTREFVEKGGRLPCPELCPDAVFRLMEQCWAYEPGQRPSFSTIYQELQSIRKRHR

[4] = target: Mitogen-activated protein kinase kinase kinase kinase 5 (Homo sapiens) (UniProt Q9Y4K4); assay: MAP4K5(h) Eurofins kinase panel
Chain of Mitogen-activated protein kinase kinase kinase kinase 5 (Homo sapiens) (Q9Y4K4 whole entry, looked up): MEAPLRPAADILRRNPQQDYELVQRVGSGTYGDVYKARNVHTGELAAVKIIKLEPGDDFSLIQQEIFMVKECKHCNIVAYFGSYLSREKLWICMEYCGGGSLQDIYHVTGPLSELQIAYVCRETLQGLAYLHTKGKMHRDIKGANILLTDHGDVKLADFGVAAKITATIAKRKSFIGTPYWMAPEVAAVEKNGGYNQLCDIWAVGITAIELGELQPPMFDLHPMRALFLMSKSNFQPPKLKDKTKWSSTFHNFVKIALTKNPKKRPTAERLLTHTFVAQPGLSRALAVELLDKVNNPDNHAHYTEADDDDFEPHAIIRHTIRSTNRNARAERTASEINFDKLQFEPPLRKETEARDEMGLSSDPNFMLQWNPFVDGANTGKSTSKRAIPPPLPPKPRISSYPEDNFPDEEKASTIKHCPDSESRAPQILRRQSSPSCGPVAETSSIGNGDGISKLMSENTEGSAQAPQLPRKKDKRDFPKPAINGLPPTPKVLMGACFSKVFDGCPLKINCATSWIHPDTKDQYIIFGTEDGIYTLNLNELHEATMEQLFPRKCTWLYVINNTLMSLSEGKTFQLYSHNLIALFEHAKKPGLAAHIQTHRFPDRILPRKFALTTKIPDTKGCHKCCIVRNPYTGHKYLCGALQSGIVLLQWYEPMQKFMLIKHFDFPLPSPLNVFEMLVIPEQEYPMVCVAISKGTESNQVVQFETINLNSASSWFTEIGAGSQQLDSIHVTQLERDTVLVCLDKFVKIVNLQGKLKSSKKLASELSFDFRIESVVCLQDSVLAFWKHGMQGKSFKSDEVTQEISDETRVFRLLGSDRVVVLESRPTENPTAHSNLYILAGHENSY

[5] = target: T2, Dual specificity mitogen-activated protein kinase kinase 7 (Homo sapiens) (UniProt O14733); assay: MKK7beta(h) Eurofins kinase panel
T2 sequence (whole entry): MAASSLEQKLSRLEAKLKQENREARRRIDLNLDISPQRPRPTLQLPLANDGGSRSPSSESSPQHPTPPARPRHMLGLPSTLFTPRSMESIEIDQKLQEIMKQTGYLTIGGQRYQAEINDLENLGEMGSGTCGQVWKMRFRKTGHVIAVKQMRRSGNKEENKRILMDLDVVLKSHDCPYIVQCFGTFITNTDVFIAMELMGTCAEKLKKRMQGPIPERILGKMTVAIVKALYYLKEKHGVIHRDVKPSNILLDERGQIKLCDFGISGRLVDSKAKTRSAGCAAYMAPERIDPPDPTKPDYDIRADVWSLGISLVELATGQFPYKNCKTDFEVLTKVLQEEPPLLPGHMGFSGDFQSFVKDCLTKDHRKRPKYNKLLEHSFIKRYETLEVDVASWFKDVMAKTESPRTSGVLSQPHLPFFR

[6] = target: Protein kinase C zeta type (Homo sapiens) (UniProt Q05513); assay: PKCzeta(h) Eurofins kinase panel
[7] = target: T3, cGMP-dependent protein kinase 1 (Homo sapiens) (UniProt Q13976); assay: PKG1beta (h) Eurofins kinase panel
T3 sequence (whole entry): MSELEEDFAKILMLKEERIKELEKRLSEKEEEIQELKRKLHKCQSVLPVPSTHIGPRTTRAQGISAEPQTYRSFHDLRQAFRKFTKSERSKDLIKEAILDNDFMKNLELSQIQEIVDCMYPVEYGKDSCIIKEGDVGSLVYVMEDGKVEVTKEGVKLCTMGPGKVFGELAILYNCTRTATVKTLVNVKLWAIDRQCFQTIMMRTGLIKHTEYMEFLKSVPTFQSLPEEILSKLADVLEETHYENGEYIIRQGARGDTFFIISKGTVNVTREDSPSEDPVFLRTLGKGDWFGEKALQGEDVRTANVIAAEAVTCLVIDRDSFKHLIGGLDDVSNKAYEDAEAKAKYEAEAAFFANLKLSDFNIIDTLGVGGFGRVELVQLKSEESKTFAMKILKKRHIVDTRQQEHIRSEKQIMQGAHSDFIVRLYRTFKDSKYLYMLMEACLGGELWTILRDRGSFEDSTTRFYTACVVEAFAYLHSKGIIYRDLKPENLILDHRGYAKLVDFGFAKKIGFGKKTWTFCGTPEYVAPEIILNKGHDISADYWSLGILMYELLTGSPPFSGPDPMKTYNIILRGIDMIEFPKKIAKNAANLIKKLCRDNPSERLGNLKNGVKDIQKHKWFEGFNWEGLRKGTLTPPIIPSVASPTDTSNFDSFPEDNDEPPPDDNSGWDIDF

[8] = target: Tyrosine-protein kinase FRK (Homo sapiens) (UniProt P42685); assay: PTK5(h) Eurofins kinase panel
[9] = target: Serine/threonine-protein kinase 33 (Homo sapiens) (UniProt Q9BYT3); assay: STK33(h) Eurofins kinase panel
Chain of Serine/threonine-protein kinase 33 (Homo sapiens) (Q9BYT3 whole entry, looked up): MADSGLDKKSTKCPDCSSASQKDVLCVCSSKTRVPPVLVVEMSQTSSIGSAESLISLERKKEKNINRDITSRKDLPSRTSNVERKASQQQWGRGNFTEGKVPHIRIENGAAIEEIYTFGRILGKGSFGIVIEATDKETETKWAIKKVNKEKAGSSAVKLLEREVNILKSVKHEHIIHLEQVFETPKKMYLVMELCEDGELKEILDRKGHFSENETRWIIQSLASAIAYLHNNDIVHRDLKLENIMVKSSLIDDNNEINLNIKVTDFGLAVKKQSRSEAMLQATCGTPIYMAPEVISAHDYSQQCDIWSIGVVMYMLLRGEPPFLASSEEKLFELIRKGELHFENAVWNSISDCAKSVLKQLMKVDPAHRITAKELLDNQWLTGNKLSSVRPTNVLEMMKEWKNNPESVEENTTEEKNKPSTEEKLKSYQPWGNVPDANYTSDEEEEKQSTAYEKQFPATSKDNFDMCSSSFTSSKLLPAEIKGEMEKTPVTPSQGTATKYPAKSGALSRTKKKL

[10] = target: Testis-specific serine/threonine-protein kinase 4 (Homo sapiens) (UniProt Q6SA08); assay: TSSK4(h) Eurofins kinase panel
Chain of Testis-specific serine/threonine-protein kinase 4 (Homo sapiens) (Q6SA08 whole entry): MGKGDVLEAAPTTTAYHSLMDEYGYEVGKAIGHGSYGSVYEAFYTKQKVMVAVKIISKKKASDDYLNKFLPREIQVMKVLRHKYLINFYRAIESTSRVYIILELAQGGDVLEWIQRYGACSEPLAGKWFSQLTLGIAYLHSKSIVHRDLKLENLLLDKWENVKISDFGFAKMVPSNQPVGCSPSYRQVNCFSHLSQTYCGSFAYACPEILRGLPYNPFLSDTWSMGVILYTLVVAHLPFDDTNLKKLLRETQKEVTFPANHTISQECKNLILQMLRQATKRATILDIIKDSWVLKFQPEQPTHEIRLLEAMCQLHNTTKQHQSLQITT

[11] = target: Tau-tubulin kinase 1 (Homo sapiens) (UniProt Q5TCY1); assay: TTBK1(h) Eurofins kinase panel
Chain of Tau-tubulin kinase 1 (Homo sapiens) (Q5TCY1 whole entry): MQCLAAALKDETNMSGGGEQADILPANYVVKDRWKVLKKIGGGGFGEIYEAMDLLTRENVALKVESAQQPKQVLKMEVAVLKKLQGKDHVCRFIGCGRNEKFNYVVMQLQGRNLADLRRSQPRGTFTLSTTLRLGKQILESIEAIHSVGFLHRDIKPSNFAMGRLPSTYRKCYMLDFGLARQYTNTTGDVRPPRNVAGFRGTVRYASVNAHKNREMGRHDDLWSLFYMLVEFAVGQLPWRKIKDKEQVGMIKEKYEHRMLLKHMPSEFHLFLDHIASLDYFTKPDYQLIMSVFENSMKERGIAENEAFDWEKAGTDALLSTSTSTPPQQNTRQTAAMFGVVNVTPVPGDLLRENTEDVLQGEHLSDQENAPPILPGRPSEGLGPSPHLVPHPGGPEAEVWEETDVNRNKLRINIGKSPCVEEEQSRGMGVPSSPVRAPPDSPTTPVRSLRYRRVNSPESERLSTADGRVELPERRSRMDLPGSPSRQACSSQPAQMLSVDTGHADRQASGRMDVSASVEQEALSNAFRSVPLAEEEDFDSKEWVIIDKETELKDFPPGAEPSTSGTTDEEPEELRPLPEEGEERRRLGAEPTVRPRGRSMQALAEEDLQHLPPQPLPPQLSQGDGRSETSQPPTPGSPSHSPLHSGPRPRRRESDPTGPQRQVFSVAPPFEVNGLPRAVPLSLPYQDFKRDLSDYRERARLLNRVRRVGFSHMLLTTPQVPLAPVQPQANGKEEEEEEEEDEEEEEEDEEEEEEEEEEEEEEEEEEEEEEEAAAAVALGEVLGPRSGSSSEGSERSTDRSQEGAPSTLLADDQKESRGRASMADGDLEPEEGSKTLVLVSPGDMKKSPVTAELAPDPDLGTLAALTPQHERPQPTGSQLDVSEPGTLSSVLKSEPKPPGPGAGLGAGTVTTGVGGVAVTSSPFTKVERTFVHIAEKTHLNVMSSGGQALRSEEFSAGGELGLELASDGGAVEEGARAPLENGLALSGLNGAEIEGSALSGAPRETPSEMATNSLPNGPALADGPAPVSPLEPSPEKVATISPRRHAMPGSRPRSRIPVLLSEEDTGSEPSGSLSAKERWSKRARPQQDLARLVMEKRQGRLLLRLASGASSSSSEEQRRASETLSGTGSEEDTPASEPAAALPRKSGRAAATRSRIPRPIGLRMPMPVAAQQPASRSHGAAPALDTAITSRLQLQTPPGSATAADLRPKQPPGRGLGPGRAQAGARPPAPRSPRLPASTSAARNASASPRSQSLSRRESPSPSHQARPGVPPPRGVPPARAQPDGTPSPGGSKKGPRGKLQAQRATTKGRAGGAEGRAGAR

[12] = target: Death-associated protein kinase 3 (Homo sapiens) (UniProt O43293); assay: ZIPK(h) Eurofins kinase panel
[13] = target: Ribosomal protein S6 kinase alpha-2 (Homo sapiens, UniProt Q15349)
Chain of Ribosomal protein S6 kinase alpha-2 (Q15349 whole entry): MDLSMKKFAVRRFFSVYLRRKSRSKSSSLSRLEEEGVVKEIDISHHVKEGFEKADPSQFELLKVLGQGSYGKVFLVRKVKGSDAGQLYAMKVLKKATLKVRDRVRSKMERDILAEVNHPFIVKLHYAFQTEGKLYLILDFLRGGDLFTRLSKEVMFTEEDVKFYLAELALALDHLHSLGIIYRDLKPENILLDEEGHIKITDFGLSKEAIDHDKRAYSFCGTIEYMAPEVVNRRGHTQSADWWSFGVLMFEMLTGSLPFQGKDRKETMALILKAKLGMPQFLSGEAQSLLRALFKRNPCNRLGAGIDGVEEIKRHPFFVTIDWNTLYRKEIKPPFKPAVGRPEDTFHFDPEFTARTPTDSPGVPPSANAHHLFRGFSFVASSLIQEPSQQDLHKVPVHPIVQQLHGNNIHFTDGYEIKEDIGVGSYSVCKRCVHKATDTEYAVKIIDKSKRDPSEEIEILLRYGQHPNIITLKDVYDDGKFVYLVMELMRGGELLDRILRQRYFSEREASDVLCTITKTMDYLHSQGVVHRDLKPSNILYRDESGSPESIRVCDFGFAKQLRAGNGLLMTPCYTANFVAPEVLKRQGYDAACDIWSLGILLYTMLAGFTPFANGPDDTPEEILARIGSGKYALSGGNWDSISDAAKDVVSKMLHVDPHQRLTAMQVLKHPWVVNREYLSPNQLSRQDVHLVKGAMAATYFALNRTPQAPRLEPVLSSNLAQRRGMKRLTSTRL

Measured: % residual kinase activity

Chain of Casein kinase I isoform gamma-1 (Homo sapiens) (Q9HCP0 whole entry, looked up, canonical isoform): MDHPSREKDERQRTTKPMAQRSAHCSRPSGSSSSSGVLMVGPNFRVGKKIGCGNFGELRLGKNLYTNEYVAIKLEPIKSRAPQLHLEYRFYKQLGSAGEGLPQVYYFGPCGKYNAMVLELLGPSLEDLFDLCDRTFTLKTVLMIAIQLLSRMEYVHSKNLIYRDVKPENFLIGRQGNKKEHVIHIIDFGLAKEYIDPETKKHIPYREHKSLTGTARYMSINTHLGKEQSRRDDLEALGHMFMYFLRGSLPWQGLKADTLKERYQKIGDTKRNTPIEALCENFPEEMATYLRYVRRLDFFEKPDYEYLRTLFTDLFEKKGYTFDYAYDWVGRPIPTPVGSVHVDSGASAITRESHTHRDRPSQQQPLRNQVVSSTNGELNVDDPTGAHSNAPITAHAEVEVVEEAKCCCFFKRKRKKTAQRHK

CCc1ccccc1C(=O)Nc1n[nH]c2c(C)c(F)c(C3C(C#N)=C(C)N(C)C(C)=C3C#N)cc12 [BAY-3827]
inactive: [1] 101% | [2] 77% | [3] 89% | [4] 95% | [5] 103% | [6] 99% | [7] 78% | [8] 91% | [9] 55% | [10] 103% | [11] 104% | [12] 91% | [13] 5%
